One block for each compound: values may come before it.
Legend:
[1] = molecular target: Sigma non-opioid intracellular receptor 1 (Homo sapiens, UniProt Q99720); experiment: Selectivity interaction (GPCR panel (PDSP screen)) EUB0000308b SIGMAR1
[2] = molecular target: Sodium-dependent dopamine transporter (Homo sapiens, UniProt Q01959); experiment: Selectivity interaction (CEREP panel (Eurofins, radioligand binding assay, enzymes, GPCRS, transporters, and ion channels)) EUB0000308b SLC6A3; conditions: at 10 µM
Sequence of Sodium-dependent dopamine transporter (Q01959 whole entry): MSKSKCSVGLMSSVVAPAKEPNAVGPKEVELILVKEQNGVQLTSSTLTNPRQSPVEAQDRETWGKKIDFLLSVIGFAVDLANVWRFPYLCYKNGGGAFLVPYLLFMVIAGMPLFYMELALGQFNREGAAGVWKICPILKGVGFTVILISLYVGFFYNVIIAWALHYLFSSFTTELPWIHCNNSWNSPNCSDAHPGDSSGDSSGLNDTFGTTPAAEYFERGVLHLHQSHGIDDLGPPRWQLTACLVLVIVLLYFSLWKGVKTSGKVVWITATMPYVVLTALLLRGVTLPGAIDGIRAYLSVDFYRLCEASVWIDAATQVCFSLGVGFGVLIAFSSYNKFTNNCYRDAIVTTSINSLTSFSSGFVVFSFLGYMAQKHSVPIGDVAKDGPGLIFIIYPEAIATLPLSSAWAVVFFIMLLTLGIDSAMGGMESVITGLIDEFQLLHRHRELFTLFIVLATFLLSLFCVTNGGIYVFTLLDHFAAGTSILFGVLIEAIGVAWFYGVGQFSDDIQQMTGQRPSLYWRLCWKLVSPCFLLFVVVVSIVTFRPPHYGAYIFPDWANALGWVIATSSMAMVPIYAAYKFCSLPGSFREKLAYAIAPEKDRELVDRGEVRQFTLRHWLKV

[3] = molecular target: T1, Serine/threonine-protein kinase ULK2 (Homo sapiens) (UniProt Q8IYT8); experiment: Selectivity interaction (KinomeScan (DiscoverX)) EUB0000308b ULK2; conditions: at 1 µM
T1 sequence (whole entry): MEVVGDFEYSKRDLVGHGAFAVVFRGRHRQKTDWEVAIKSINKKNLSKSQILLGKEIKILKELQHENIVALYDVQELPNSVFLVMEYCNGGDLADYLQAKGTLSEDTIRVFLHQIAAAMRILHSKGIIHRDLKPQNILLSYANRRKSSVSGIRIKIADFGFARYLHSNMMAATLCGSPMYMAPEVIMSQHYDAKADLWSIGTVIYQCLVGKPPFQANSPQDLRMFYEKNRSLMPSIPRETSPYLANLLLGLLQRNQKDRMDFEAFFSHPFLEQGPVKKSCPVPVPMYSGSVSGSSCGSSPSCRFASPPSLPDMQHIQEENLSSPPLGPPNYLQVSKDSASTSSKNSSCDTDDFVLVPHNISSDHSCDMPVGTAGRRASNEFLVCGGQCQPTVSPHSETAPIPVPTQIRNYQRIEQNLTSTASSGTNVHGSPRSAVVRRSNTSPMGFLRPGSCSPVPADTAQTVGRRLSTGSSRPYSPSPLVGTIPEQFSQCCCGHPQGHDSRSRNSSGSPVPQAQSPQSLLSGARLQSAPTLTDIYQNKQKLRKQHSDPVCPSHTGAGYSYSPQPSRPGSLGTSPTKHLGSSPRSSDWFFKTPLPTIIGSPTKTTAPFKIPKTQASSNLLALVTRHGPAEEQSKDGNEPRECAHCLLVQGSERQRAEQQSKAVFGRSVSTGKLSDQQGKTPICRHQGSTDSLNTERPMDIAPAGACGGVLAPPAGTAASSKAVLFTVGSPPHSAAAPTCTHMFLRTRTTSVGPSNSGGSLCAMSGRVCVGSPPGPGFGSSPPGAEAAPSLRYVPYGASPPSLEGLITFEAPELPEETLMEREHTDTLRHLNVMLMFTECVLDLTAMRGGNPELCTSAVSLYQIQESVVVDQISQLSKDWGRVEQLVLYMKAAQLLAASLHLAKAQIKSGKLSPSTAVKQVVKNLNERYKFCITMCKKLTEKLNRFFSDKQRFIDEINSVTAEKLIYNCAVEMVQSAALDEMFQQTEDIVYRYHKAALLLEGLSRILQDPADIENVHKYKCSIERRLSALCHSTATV

[4] = molecular target: Melatonin receptor type 1A (Homo sapiens) (UniProt P48039); experiment: Selectivity interaction (CEREP panel (Eurofins, radioligand binding assay, enzymes, GPCRS, transporters, and ion channels)) EUB0000308b MTNR1A; conditions: at 10 µM
[5] = molecular target: Sodium-dependent noradrenaline transporter (Homo sapiens, UniProt P23975); experiment: Selectivity interaction (CEREP panel (Eurofins, radioligand binding assay, enzymes, GPCRS, transporters, and ion channels)) EUB0000308b SLC6A2; conditions: at 10 µM
Sequence of Sodium-dependent noradrenaline transporter (P23975 whole entry): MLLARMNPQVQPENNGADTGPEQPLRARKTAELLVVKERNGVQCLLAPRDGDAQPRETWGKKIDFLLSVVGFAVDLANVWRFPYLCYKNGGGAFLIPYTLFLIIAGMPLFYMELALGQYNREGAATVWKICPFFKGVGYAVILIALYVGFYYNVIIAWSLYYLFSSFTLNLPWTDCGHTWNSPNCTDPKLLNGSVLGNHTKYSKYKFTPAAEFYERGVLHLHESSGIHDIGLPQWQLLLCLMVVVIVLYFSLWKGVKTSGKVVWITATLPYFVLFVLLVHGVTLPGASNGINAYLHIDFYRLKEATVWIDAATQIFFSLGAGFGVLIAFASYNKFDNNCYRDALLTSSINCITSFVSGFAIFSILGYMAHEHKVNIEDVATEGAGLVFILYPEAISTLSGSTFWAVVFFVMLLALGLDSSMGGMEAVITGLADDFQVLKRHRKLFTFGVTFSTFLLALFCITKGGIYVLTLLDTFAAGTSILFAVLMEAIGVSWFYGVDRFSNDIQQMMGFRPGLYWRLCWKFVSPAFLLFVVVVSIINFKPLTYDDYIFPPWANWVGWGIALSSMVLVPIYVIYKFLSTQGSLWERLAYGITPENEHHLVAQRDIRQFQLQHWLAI

[6] = molecular target: T2, Prostaglandin G/H synthase 2 (Homo sapiens) (UniProt P35354); experiment: Selectivity interaction (Enzyme panel (Eurofins-Cerep)) EUB0000262b PTGS2; conditions: at 10 µM
T2 sequence (whole entry): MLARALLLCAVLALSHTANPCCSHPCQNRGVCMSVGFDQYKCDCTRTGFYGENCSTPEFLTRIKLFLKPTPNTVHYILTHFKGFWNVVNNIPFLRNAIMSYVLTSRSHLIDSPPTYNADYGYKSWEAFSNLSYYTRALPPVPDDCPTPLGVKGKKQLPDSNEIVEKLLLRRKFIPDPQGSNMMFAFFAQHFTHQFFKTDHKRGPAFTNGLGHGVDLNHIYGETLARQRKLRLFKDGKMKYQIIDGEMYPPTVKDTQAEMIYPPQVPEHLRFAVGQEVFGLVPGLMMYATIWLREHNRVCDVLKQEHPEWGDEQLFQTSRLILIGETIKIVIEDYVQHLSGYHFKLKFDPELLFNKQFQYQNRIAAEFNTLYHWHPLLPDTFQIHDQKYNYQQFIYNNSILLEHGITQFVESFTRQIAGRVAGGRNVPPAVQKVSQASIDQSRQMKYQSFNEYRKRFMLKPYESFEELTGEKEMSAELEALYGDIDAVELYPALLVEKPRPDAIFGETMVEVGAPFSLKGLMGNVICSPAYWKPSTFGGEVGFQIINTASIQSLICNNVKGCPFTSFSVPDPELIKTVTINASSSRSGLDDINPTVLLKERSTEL

[7] = molecular target: Delta-type opioid receptor (Homo sapiens) (UniProt P41143); experiment: Selectivity interaction (Enzyme panel (Eurofins-Cerep)) EUB0000262b OPRD1; conditions: at 10 µM
Sequence of Delta-type opioid receptor (Homo sapiens) (P41143 whole entry): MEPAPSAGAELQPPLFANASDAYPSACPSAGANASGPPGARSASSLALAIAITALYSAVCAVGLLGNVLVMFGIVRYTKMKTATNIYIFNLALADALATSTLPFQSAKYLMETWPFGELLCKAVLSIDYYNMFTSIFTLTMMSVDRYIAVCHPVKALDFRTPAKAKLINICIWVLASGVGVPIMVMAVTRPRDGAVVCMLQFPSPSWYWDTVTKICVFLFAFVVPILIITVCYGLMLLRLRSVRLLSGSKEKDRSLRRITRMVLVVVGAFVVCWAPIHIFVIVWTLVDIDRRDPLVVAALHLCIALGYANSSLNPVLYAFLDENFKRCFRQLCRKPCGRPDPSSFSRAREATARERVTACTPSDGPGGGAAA

[8] = molecular target: Delta-type opioid receptor (Homo sapiens) (UniProt P41143); experiment: Selectivity interaction (CEREP panel (Eurofins, binding assay)) EUB0000262b OPRD1; conditions: at 10 µM
[9] = molecular target: T3, Gamma-aminobutyric acid receptor subunit alpha-1 (Homo sapiens, UniProt P14867); experiment: Selectivity interaction (GPCR panel (PDSP screen)) EUB0000262b GABRA1
T3 sequence (P14867 whole entry): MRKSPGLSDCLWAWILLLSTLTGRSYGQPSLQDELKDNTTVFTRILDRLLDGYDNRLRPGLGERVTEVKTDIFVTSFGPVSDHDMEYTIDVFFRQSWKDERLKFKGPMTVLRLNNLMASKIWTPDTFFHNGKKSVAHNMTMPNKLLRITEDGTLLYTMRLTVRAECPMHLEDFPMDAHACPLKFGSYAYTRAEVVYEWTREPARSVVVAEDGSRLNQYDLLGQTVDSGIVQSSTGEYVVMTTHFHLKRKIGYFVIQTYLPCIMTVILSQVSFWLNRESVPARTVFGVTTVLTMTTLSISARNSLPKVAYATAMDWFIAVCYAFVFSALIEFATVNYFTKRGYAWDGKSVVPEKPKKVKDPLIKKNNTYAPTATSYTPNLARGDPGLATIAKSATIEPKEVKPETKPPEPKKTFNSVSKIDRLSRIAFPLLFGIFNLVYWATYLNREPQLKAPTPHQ

[10] = molecular target: Urotensin-2 receptor (Homo sapiens) (UniProt Q9UKP6); experiment: Selectivity interaction (CEREP panel (Eurofins, binding assay)) EUB0000262b UTS2R; conditions: at 10 µM
Sequence of Urotensin-2 receptor (Homo sapiens) (Q9UKP6 whole entry): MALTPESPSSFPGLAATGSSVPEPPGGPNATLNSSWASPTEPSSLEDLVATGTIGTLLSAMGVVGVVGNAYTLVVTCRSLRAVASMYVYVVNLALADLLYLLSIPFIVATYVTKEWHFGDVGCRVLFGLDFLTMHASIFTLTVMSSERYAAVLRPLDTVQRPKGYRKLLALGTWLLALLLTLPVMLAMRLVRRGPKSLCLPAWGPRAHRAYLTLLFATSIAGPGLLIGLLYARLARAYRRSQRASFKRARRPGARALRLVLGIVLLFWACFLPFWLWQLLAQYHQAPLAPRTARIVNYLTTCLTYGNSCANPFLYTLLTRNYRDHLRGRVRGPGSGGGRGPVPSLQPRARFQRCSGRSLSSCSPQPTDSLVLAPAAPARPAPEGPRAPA

[11] = molecular target: MAP/microtubule affinity-regulating kinase 3 (Homo sapiens) (UniProt P27448); experiment: Selectivity interaction (KinomeScan (DiscoverX)) EUB0000262b MARK3; conditions: at 1 µM
Sequence of MAP/microtubule affinity-regulating kinase 3 (Homo sapiens) (P27448 whole entry, looked up): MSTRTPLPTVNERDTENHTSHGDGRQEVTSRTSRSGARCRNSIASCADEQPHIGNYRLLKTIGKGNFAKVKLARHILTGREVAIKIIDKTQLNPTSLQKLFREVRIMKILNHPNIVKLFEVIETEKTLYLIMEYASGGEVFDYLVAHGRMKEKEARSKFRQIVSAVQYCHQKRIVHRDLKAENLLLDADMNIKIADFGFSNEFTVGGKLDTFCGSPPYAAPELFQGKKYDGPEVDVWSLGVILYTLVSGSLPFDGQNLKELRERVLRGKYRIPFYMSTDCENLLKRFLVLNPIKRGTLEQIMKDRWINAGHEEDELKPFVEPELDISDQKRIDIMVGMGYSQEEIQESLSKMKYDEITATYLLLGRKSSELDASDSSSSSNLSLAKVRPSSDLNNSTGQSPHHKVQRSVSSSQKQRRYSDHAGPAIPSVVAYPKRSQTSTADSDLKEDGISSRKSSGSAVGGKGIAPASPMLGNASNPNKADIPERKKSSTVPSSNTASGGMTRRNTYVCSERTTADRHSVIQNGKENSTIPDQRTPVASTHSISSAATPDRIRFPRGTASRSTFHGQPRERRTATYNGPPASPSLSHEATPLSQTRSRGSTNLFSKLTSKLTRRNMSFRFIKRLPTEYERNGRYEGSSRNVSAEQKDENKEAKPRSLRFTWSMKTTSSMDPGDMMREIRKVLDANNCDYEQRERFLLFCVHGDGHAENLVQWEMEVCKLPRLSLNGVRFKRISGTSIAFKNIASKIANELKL

[12] = molecular target: T2, Prostaglandin G/H synthase 2 (Homo sapiens); experiment: Selectivity interaction (CEREP panel (Eurofins, binding assay)) EUB0000262b PTGS2; conditions: at 10 µM
[13] = molecular target: T4, Adenosine receptor A3 (Homo sapiens) (UniProt P0DMS8); experiment: Selectivity interaction (CEREP panel (Eurofins, binding assay)) EUB0000262b ADORA3; conditions: at 10 µM
T4 sequence (whole entry): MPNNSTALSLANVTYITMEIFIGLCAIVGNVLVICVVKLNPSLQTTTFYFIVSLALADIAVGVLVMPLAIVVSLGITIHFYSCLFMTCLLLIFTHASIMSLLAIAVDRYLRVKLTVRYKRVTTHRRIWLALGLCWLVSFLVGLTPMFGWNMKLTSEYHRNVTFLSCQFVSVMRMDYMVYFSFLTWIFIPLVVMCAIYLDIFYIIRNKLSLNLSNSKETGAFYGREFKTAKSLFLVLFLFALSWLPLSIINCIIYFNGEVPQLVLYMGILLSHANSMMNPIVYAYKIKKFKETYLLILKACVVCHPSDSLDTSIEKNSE

[14] = molecular target: T4, Adenosine receptor A3 (Homo sapiens); experiment: Selectivity interaction (Enzyme panel (Eurofins-Cerep)) EUB0000262b ADORA3; conditions: at 10 µM
[15] = molecular target: Urotensin-2 receptor (Homo sapiens) (UniProt Q9UKP6); experiment: Selectivity interaction (Enzyme panel (Eurofins-Cerep)) EUB0000262b UTS2R; conditions: at 10 µM
[16] = molecular target: Peroxisome proliferator-activated receptor gamma (Homo sapiens) (UniProt P37231); experiment: Selectivity interaction (CEREP panel (Eurofins, binding assay)) EUB0000262b PPARG; conditions: at 10 µM
Sequence of Peroxisome proliferator-activated receptor gamma (Homo sapiens) (P37231 whole entry): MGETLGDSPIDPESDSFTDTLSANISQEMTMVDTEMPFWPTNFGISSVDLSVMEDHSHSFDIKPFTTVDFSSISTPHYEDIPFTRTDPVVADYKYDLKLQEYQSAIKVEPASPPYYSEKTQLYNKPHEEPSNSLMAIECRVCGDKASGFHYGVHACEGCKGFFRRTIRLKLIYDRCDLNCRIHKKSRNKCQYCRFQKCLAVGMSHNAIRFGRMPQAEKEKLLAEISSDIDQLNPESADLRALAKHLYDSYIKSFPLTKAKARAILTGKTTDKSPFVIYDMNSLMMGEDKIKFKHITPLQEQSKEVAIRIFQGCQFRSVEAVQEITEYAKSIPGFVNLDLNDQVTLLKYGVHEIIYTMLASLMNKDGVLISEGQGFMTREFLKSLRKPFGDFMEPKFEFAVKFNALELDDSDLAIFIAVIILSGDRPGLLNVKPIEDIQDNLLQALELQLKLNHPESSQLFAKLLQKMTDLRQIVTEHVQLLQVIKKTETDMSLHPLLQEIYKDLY

Histamine H1 receptor [17] = molecular target: T5, Histamine H1 receptor (Homo sapiens, UniProt P35367); experiment: Selectivity interaction (CEREP panel (Eurofins, binding assay)) EUB0000262b HRH1; conditions: at 10 µM
T5 sequence (P35367 whole entry): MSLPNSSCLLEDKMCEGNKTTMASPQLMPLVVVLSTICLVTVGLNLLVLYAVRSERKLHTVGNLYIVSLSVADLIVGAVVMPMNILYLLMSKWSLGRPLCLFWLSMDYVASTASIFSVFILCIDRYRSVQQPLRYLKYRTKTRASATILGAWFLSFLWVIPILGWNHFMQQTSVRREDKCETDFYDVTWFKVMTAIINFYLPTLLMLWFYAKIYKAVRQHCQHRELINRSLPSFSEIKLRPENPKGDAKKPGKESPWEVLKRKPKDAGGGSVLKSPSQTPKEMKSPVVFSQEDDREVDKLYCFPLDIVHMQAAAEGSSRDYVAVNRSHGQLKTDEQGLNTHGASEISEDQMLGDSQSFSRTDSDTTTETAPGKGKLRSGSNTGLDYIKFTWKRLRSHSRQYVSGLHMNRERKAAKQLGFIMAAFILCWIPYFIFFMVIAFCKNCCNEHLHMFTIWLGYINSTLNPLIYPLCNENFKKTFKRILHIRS

[18] = molecular target: T6, Amine oxidase [flavin-containing] A (Homo sapiens, UniProt P21397); experiment: Selectivity interaction (Enzyme panel (Eurofins-Cerep)) EUB0000262b MAOA; conditions: at 10 µM
T6 sequence (P21397 whole entry): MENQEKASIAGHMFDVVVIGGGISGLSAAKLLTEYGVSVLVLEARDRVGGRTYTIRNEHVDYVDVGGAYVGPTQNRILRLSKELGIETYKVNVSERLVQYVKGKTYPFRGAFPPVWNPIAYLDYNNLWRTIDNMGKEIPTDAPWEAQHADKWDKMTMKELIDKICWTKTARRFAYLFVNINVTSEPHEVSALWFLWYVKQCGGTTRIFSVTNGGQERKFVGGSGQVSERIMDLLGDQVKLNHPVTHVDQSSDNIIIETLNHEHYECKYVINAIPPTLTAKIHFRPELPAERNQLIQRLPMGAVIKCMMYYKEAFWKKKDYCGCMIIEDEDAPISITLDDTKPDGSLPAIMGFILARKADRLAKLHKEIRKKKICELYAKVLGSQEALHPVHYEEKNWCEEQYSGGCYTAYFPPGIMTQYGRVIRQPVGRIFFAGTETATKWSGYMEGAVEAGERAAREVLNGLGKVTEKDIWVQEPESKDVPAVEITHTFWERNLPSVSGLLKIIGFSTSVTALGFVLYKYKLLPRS

[19] = molecular target: Cholecystokinin receptor type A (Homo sapiens) (UniProt P32238); experiment: Selectivity interaction (CEREP panel (Eurofins, binding assay)) EUB0000262b CCKAR; conditions: at 10 µM
Sequence of Cholecystokinin receptor type A (Homo sapiens) (P32238 whole entry): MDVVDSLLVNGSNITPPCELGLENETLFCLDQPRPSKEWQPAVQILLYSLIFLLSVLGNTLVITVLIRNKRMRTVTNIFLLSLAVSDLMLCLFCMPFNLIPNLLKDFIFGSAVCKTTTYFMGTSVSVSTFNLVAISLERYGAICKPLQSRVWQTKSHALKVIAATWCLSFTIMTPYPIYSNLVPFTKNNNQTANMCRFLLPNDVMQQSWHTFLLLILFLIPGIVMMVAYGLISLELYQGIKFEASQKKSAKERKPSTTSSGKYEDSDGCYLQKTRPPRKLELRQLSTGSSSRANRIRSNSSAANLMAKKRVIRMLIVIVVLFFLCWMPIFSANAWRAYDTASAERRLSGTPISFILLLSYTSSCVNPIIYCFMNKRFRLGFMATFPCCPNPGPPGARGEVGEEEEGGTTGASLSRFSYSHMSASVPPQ

[20] = molecular target: T6, Amine oxidase [flavin-containing] A; experiment: Selectivity interaction (CEREP panel (Eurofins, binding assay)) EUB0000262b MAOA; conditions: at 10 µM
[21] = molecular target: Peroxisome proliferator-activated receptor gamma (Homo sapiens) (UniProt P37231); experiment: Selectivity interaction (Enzyme panel (Eurofins-Cerep)) EUB0000262b PPARG; conditions: at 10 µM
Histamine H1 receptor [22] = molecular target: T5, Histamine H1 receptor; experiment: Selectivity interaction (Enzyme panel (Eurofins-Cerep)) EUB0000262b HRH1; conditions: at 10 µM
[23] = molecular target: T7, Aurora kinase C (Homo sapiens) (UniProt Q9UQB9); experiment: Selectivity interaction (KinomeScan (DiscoverX)) EUB0000262b AURKC; conditions: at 1 µM
T7 sequence (whole entry): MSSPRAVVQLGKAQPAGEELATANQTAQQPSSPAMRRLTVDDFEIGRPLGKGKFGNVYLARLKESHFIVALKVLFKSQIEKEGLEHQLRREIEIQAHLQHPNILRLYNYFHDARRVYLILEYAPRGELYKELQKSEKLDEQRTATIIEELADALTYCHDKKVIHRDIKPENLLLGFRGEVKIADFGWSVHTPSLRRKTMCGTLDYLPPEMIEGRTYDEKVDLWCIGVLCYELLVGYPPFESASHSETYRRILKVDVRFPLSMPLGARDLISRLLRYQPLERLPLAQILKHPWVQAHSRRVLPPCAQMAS

[24] = molecular target: Cholecystokinin receptor type A (Homo sapiens) (UniProt P32238); experiment: Selectivity interaction (Enzyme panel (Eurofins-Cerep)) EUB0000262b CCKAR; conditions: at 10 µM

Sequence of Sigma non-opioid intracellular receptor 1 (Q99720 whole entry): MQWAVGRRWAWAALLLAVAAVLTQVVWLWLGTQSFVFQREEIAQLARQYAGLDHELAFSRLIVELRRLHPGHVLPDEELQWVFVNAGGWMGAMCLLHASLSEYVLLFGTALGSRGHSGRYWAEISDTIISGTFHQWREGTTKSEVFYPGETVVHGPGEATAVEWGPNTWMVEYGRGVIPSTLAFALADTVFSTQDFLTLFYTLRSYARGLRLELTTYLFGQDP

- Ki [1]: 505 nM
- % of inhibition [2]: 43%
- % of control [3]: 46%
- % of inhibition [4]: 31%
- % of inhibition [5]: 32%
SMILES: Clc1cccc(-c2nnnn2Cc2cccnc2)c1Cl

- % of inhibition [6]: 62.2%
- % of inhibition [7]: 77.9%
- % of inhibition [8]: 77.9%
- Ki [9]: 794 nM
- % of inhibition [10]: 94.9%
- % of control [11]: 38%
- % of inhibition [12]: 62.2%
- % of inhibition [13]: 71.6%
- % of inhibition [14]: 71.6%
- % of inhibition [15]: 94.9%
- % of inhibition [16]: 99.1%
- % of inhibition (Histamine H1 receptor [17]): 69.2%
- % of inhibition [18]: 74.5%
- % of inhibition [19]: 98.9%
- % of inhibition [20]: 74.5%
- % of inhibition [21]: 99.1%
- % of inhibition (Histamine H1 receptor [22]): 69.2%
- % of control [23]: 9%
- % of inhibition [24]: 98.9%
SMILES: CN(C)CC#Cc1ccc(OCCCc2sc(N3CCc4cccc(C(=O)Nc5nc6ccccc6s5)c4C3)nc2C(=O)O)c(F)c1 [A-1155463]
